# In patent publication US10722516B2, “Use of landiolol hydrochloride in the long-term treatment of tachyarrhythmias” (AOP Orphan Pharmaceuticals AG, priority 2013, dated 2020):
# Where a name gives a salt, the structure may show the parent alone.
# Assays:
# [1] = system: healthy volunteers; experiment: 24 h long-term infusion study: local tolerability and safety; format: in vivo, human
# Description: (§1) A single centre prospective, randomized, double blind, crossover, pharmacokinetic, safety and tolerability study to compare long-term infusion administration of AOP LDLL600 against esmolol in healthy volunteers was performed.
# (§2) Landiolol hydrochloride lyophilized (LDLL600) comprises 600 mg landiolol hydrochloride, 600 mg mannitol, pH 6.5. The primary packing of LDLL600 is 50 ml vial, the reconstitution volume is 50 ml and the final product concentration is 12 mg/mL landiolol HCl.
# (§3) 12 subjects were administered AOP LDLL600 or Esmolol (Brevibloc, 2500 mg/250 ml) in 1:1 ratio in double-blind, randomized, cross-over setting. PK, systemic cardiovascular and local tolerability and safety of the 24 h-long term infusions of three dose levels of both IMPs during each treatment period were assessed.
# (§4) Landiolol was infused over 24 h in a dose of 10 μg/KG/min (2 hrs), followed by 20 μg/KG/min (2 hrs), followed by 40 μg/KG/min for 20 hrs.
# (§5) Dosing algorithm was body weight divided by 20, 10 and 5 in ml/h giving 10, 20 and 40 μg/KG/min at a concentration of 12 mg/ml. No severe adverse drug reactions, mild local reactions, 1 severe local reaction (Esmolol High Dose).
# (§6) Landiolol was infused over 24 h in a dose of 10, 20 and 40 μg/KG/min, i.e. 10 μg/KG/min landiolol were administered for 2 hrs, followed by 2 hrs administration of 20 μg/KG/min and further followed by 20 hrs administration of 40 μg/KG/min.
# [2] = system: healthy volunteers; experiment: 24 h long-term infusion study, AOP LDLL600 against esmolol: heart rate; format: in vivo, human
# Description: as §1, §2, §3, §4, §5, §6
# Post-infusion follow up measurements were performed immediately after 20 hrs administration study, i.e. 2, 4 min etc. after stop of landiolol administration.
# [3] = 24 h infusion, three dose levels
# [4] = FU Predose (end of 20 h HD, infusion stop)
# [5] = FU post-infusion, 20 h 2 min (2 min after infusion stop)
# [6] = FU post-infusion, 20 h 4 min (4 min after infusion stop)
# [7] = FU post-infusion, 20 h 6 min (6 min after infusion stop)
# [8] = FU post-infusion, 20 h 8 min (8 min after infusion stop)
# [9] = FU post-infusion, 20 h 12 min (12 min after infusion stop)
# [10] = FU post-infusion, 20 h 16 min (16 min after infusion stop)
# [11] = FU post-infusion, 20 h 20 min (20 min after infusion stop)
# [12] = FU post-infusion, 20 h 30 min (30 min after infusion stop)
# [13] = FU post-infusion, 21 h (1 h after infusion stop)
# [14] = FU post-infusion, 22 h (2 h after infusion stop)
# [15] = FU post-infusion, 24 h (4 h after infusion stop)
# [16] = FU post-infusion, 26 h (6 h after infusion stop)
# [17] = HD infusion (landiolol 40, esmolol 200 μg/kg/min, after LD and MD), 2 min
# [18] = HD infusion (landiolol 40, esmolol 200 μg/kg/min, after LD and MD), 3 min
# [19] = HD infusion (landiolol 40, esmolol 200 μg/kg/min, after LD and MD), 4 min
# [20] = HD infusion (landiolol 40, esmolol 200 μg/kg/min, after LD and MD), 6 min
# [21] = HD infusion (landiolol 40, esmolol 200 μg/kg/min, after LD and MD), 8 min
# [22] = HD infusion (landiolol 40, esmolol 200 μg/kg/min, after LD and MD), 12 min
# [23] = HD infusion (landiolol 40, esmolol 200 μg/kg/min, after LD and MD), 16 min
# [24] = HD infusion (landiolol 40, esmolol 200 μg/kg/min, after LD and MD), 20 min
# [25] = HD infusion (landiolol 40, esmolol 200 μg/kg/min, after LD and MD), 30 min
# [26] = HD infusion (landiolol 40, esmolol 200 μg/kg/min, after LD and MD), 60 min
# [27] = HD infusion (landiolol 40, esmolol 200 μg/kg/min, after LD and MD), 90 min
# [28] = HD infusion (landiolol 40, esmolol 200 μg/kg/min, after LD and MD), 2 h
# [29] = HD infusion (landiolol 40, esmolol 200 μg/kg/min, after LD and MD), 4 h
# [30] = HD infusion (landiolol 40, esmolol 200 μg/kg/min, after LD and MD), 8 h
# [31] = HD infusion (landiolol 40, esmolol 200 μg/kg/min, after LD and MD), 12 h
# [32] = HD infusion (landiolol 40, esmolol 200 μg/kg/min, after LD and MD), 16 h
# [33] = HD infusion (landiolol 40, esmolol 200 μg/kg/min, after LD and MD), 20 h (end)
structure (smiles),measurement,setting,value
"CC1(C)OC[C@@H](COC(=O)CCc2ccc(OC[C@@H](O)CNCCNC(=O)N3CCOCC3)cc2)O1 [Landiolol, (−)-[(S)-2,2-dimethyl-1,3-dioxolan-4-yl]methyl 3-[4-[(S)-2-hydroxy-3-(2-morpholinocarbonylamino)ethylamino]propoxy]phenylpropionate monohydrochloride]",local tolerability compared to Esmolol,[1]; 24 h infusion,clearly better
same,local reactions (percent of subjects),[1]; [3],16.7%
same,local reactions (subjects/total),[1]; [3],2/12
same,local venous skin irritations or inflammatory reactions at the site of injection,[1]; long term treatment,"did not bring about any blushing, erythema, pain, inflammation, induration, phlebitis and thrombosis"
same,"change of heart rate from predose, Mean (SD)",[2]; [4],−5.7 (11.51) beats per minute
same,"heart rate, Mean (SD)",[2]; [4],61.7 (5.87) beats per minute
same,"change of heart rate from predose, Mean (SD)",[2]; [5],−6.8 (11.98) beats per minute
same,"heart rate, Mean (SD)",[2]; [5],60.6 (5.50) beats per minute
same,"change of heart rate from predose, Mean (SD)",[2]; [6],−6.5 (9.88) beats per minute
same,"heart rate, Mean (SD)",[2]; [6],60.8 (4.04) beats per minute
same,"change of heart rate from predose, Mean (SD)",[2]; [7],−5.9 (9.79) beats per minute
same,"heart rate, Mean (SD)",[2]; [7],61.4 (5.43) beats per minute
same,"change of heart rate from predose, Mean (SD)",[2]; [8],−5.7 (10.63) beats per minute
same,"heart rate, Mean (SD)",[2]; [8],61.7 (5.33) beats per minute
same,"change of heart rate from predose, Mean (SD)",[2]; [9],−3.8 (10.00) beats per minute
same,"heart rate, Mean (SD)",[2]; [9],63.5 (6.11) beats per minute
same,"change of heart rate from predose, Mean (SD)",[2]; [10],−0.3 (14.69) beats per minute
same,"heart rate, Mean (SD)",[2]; [10],67.0 (8.92) beats per minute
same,"change of heart rate from predose, Mean (SD)",[2]; [11],−0.3 (11.89) beats per minute
same,"heart rate, Mean (SD)",[2]; [11],67.0 (8.29) beats per minute
same,"change of heart rate from predose, Mean (SD)",[2]; [12],2.7 (9.47) beats per minute
same,"heart rate, Mean (SD)",[2]; [12],70.0 (5.70) beats per minute
same,"change of heart rate from predose, Mean (SD)",[2]; [13],1.8 (12.70) beats per minute
same,"heart rate, Mean (SD)",[2]; [13],69.2 (9.64) beats per minute
same,"change of heart rate from predose, Mean (SD)",[2]; [14],−0.5 (9.97) beats per minute
same,"heart rate, Mean (SD)",[2]; [14],66.8 (8.43) beats per minute
same,"change of heart rate from predose, Mean (SD)",[2]; [15],4.2 (10.34) beats per minute
same,"heart rate, Mean (SD)",[2]; [15],71.5 (4.96) beats per minute
same,"change of heart rate from predose, Mean (SD)",[2]; [16],5.3 (9.97) beats per minute
same,"heart rate, Mean (SD)",[2]; [16],72.6 (5.26) beats per minute
same,"change of heart rate from predose, Mean (SD)",[2]; HD Predose (end of 2 h MD),−11.3 (9.41) beats per minute
same,"heart rate, Mean (SD)",[2]; HD Predose (end of 2 h MD),56.1 (7.38) beats per minute
same,"change of heart rate from predose, Mean (SD)",[2]; [17],−9.6 (8.69) beats per minute
same,"heart rate, Mean (SD)",[2]; [17],57.8 (5.43) beats per minute
same,"change of heart rate from predose, Mean (SD)",[2]; [18],−9.9 (9.92) beats per minute
same,"heart rate, Mean (SD)",[2]; [18],57.4 (6.40) beats per minute
same,"change of heart rate from predose, Mean (SD)",[2]; [19],−12.6 (9.52) beats per minute
same,"heart rate, Mean (SD)",[2]; [19],54.8 (5.45) beats per minute
same,"change of heart rate from predose, Mean (SD)",[2]; [20],−9.7 (11.01) beats per minute
same,"heart rate, Mean (SD)",[2]; [20],57.7 (7.38) beats per minute
same,"change of heart rate from predose, Mean (SD)",[2]; [21],−10.7 (10.76) beats per minute
same,"heart rate, Mean (SD)",[2]; [21],56.7 (6.62) beats per minute
same,"change of heart rate from predose, Mean (SD)",[2]; [22],−9.4 (12.21) beats per minute
same,"heart rate, Mean (SD)",[2]; [22],57.9 (8.13) beats per minute
same,"change of heart rate from predose, Mean (SD)",[2]; [23],−11.3 (10.71) beats per minute
same,"heart rate, Mean (SD)",[2]; [23],56.0 (6.80) beats per minute
same,"change of heart rate from predose, Mean (SD)",[2]; [24],−11.4 (9.74) beats per minute
same,"heart rate, Mean (SD)",[2]; [24],55.9 (6.35) beats per minute
same,"change of heart rate from predose, Mean (SD)",[2]; [25],−10.5 (10.30) beats per minute
same,"heart rate, Mean (SD)",[2]; [25],56.8 (7.23) beats per minute
same,"change of heart rate from predose, Mean (SD)",[2]; [26],−5.4 (13.14) beats per minute
same,"heart rate, Mean (SD)",[2]; [26],61.9 (8.93) beats per minute
same,"change of heart rate from predose, Mean (SD)",[2]; [27],−4.8 (11.24) beats per minute
same,"heart rate, Mean (SD)",[2]; [27],62.5 (5.95) beats per minute
same,"change of heart rate from predose, Mean (SD)",[2]; [28],−3.0 (9.59) beats per minute
same,"heart rate, Mean (SD)",[2]; [28],64.3 (5.25) beats per minute
same,"change of heart rate from predose, Mean (SD)",[2]; [29],−6.9 (11.24) beats per minute
same,"heart rate, Mean (SD)",[2]; [29],60.4 (5.25) beats per minute
same,"change of heart rate from predose, Mean (SD)",[2]; [30],−9.8 (10.39) beats per minute
same,"heart rate, Mean (SD)",[2]; [30],57.5 (5.96) beats per minute
same,"change of heart rate from predose, Mean (SD)",[2]; [31],−10.8 (10.17) beats per minute
same,"heart rate, Mean (SD)",[2]; [31],56.5 (6.08) beats per minute
same,"change of heart rate from predose, Mean (SD)",[2]; [32],−13.8 (10.01) beats per minute
same,"heart rate, Mean (SD)",[2]; [32],53.6 (4.89) beats per minute
same,"change of heart rate from predose, Mean (SD)",[2]; [33],−5.7 (11.51) beats per minute
same,"heart rate, Mean (SD)",[2]; [33],61.7 (5.87) beats per minute
same,"change of heart rate from predose, Mean (SD)","[2]; LD infusion (landiolol 10, esmolol 50 μg/kg/min), 2 min",−1.8 (7.77) beats per minute
